Assay results from patent publication US11419852B2, “Beta-lactam compounds or salts thereof for use in long-acting prevention or treatment of a glucose metabolism disorder” (GLYCOLYSIS BIOMED CO., LTD., priority 2019, dated 2022).
Marks after values point to notes of the source that are not given here.

Experiments:
Type in all cases: in vivo
db/db mice [1] = experiment: Fasting plasma glucose (FPG) measurement; conditions: Ex 2 G3 db/db, Met oral 0.3 mg/g bw/day, dosing 6 weeks
Procedure: Four to five weeks old db/db mice (BKS.Cg-Dock7^m+/+Lepr^db/JNarl) and m/m mice (BKS.Cg-Dock7^m+/Dock7^m+) were obtained from National Laboratory Animal Center (Nangang, Taipei, Taiwan). These animals were maintained in a facility with a 12-h dark-light cycle at 24±2° C. and 65±5% humidity and were provided food (No. 5001; PMI Nutrition International, Brentwood, Mo.) and water ad libitum. For experiments, the average body weight of m/m mice was approximately 20 g, and that of db/db mice was approximately 30 g.
For each mouse, blood was sampled from the tail vein and measured for FPG levels using a blood glucose meter (OneTouch UltraEasy, Johnson & Johnson, USA) at a predestined time point.

db/db mice [2] = experiment: Plasma biochemical parameters (AST, ALT, BUN, Cr, HbA1c); conditions: Ex 3: db/db mice, daily dosing 3 weeks at doses of Table 10; week 9
Procedure: Inflammatory markers such as serum aspartate aminotransferase (AST), alanine aminotransferase (ALT), blood urea nitrogen (BUN), creatinine (Cr), and hemoglobin Alc (HbAlc) were measured using a BMC-Hitachi 717 chemistry auto analyzer.

db/db mice [3] = experiment: Oral glucose tolerance test (OGTT); design: OGTT AUC: unit not given here
Procedure: Four to five weeks old db/db mice (BKS.Cg-Dock7^m+/+Lepr^db/JNarl) and m/m mice (BKS.Cg-Dock7^m+/Dock7^m+) were obtained from National Laboratory Animal Center ([…], Taiwan). […] PMI Nutrition International, Brentwood, Mo.) and water ad libitum. […] Blood was sampled from the tail vein, and FPG levels were measured and recorded as the basic blood glucose levels. […] The total area under the curve (AUC) in OGTT was plotted and calculated by the Area Under Coordinates Program (StatsToDo Server, Department of Obstetrics and Gynecology, Chinese University of Hong Kong).

[4] = Food and water intake of mice; conditions: Ex 3: db/db mice, daily dosing 3 weeks at doses of Table 10
Procedure: Four to five weeks old db/db mice (BKS.Cg-Dock7^m+/+Lepr^db/JNarl) and m/m mice (BKS.Cg-Dock7^m+/Dock7^m+) were obtained from National Laboratory Animal Center ([…], Taiwan). […] PMI Nutrition International, Brentwood, Mo.) and water ad libitum. […] The mouse body weight (bw) and the amounts of water and food intake were recorded weekly for the entire study period.

db/db mice [5] = experiment: Histopathological assessment (H&E stain); conditions: Ex 2, metformin-treated vs ertapenem-treated mice
Description: For histopathological assessment, all mice were sacrificed by 95% CO2 asphyxiation at the end of the study period. Their brain, liver, kidney, pancreas, and epididymal fat pads were removed, fixed in 10% phosphate-buffered formalin, and embedded in paraffin. Tissues embedded in paraffin were cut into […] sections that were then stained with hematoxylin-eosin (i.e., H&E stain).

CN(C)C(=N)N=C(N)N [Met, metformin]
Average FPG level (db/db mice [1]; week 0): 160 ± 21^b
Average FPG level (db/db mice [1]; week 3): 136 ± 13^b
Average FPG level (db/db mice [1]; week 6): 222 ± 30^b
Average FPG level (db/db mice [1]; week 9): 310 ± 25^d
Average FPG level (db/db mice [1]; week 12): 267 ± 43^cd
Average FPG level (db/db mice [1]; week 16): 215 ± 27^b
Average FPG level (db/db mice [1]; week 18): 346 ± 50^b
ALT (db/db mice [2]): 116 ± 12^d U/L
AST (db/db mice [2]): 194 ± 17^e U/L
BUN (db/db mice [2]): 37 ± 1^b mg/dL
Creatinine (db/db mice [2]): 0.517 ± 0.01^e mg/dL
HbA1c (db/db mice [2]): 6.7 ± 0.2^e %
Oral glucose tolerance (OGT) of db/db mice (db/db mice [3]; Ex 2, most time points (ertapenem: weeks 6 and 12)): no significant changes
Level of OGTT (blood glucose) (db/db mice [3]; Ex 2 G3 db/db, Met oral 0.3 mg/g bw/day, dosing 6 weeks, Week 6, 0 min): 222 ± 30 mg/dL
Level of OGTT (blood glucose) (db/db mice [3]; Ex 2 G3 db/db, Met oral 0.3 mg/g bw/day, dosing 6 weeks, Week 6, 15 min): 828 ± 33^bc
Level of OGTT (blood glucose) (db/db mice [3]; Ex 2 G3 db/db, Met oral 0.3 mg/g bw/day, dosing 6 weeks, Week 6, 30 min): 832 ± 42^c
Level of OGTT (blood glucose) (db/db mice [3]; Ex 2 G3 db/db, Met oral 0.3 mg/g bw/day, dosing 6 weeks, Week 6, 60 min): 710 ± 86^cd
Level of OGTT (blood glucose) (db/db mice [3]; Ex 2 G3 db/db, Met oral 0.3 mg/g bw/day, dosing 6 weeks, Week 6, 120 min): 417 ± 42^cd
Level of OGTT (blood glucose) (db/db mice [3]; Ex 2 G3 db/db, Met oral 0.3 mg/g bw/day, dosing 6 weeks, Week 12, 0 min): 267 ± 43^cd
Level of OGTT (blood glucose) (db/db mice [3]; Ex 2 G3 db/db, Met oral 0.3 mg/g bw/day, dosing 6 weeks, Week 12, 15 min): 821 ± 47 mg/dL
Level of OGTT (blood glucose) (db/db mice [3]; Ex 2 G3 db/db, Met oral 0.3 mg/g bw/day, dosing 6 weeks, Week 12, 30 min): 839 ± 40^cd
Level of OGTT (blood glucose) (db/db mice [3]; Ex 2 G3 db/db, Met oral 0.3 mg/g bw/day, dosing 6 weeks, Week 12, 60 min): 741 ± 51^c
Level of OGTT (blood glucose) (db/db mice [3]; Ex 2 G3 db/db, Met oral 0.3 mg/g bw/day, dosing 6 weeks, Week 12, 120 min): 564 ± 70^c
Level of OGTT (blood glucose) (db/db mice [3]; Ex 2 G3 db/db, Met oral 0.3 mg/g bw/day, dosing 6 weeks, Week 16, 0 min): 215 ± 27 mg/dL
Level of OGTT (blood glucose) (db/db mice [3]; Ex 2 G3 db/db, Met oral 0.3 mg/g bw/day, dosing 6 weeks, Week 16, 15 min): 611 ± 24 mg/dL
Level of OGTT (blood glucose) (db/db mice [3]; Ex 2 G3 db/db, Met oral 0.3 mg/g bw/day, dosing 6 weeks, Week 16, 30 min): 703 ± 15 mg/dL
Level of OGTT (blood glucose) (db/db mice [3]; Ex 2 G3 db/db, Met oral 0.3 mg/g bw/day, dosing 6 weeks, Week 16, 60 min): 637 ± 27 mg/dL
Level of OGTT (blood glucose) (db/db mice [3]; Ex 2 G3 db/db, Met oral 0.3 mg/g bw/day, dosing 6 weeks, Week 16, 120 min): 444 ± 62^cd
Level of OGTT (blood glucose) (db/db mice [3]; Ex 2 G3 db/db, Met oral 0.3 mg/g bw/day, dosing 6 weeks, Week 18, 0 min): 346 ± 58 mg/dL
Level of OGTT (blood glucose) (db/db mice [3]; Ex 2 G3 db/db, Met oral 0.3 mg/g bw/day, dosing 6 weeks, Week 18, 15 min): 836 ± 58 mg/dL
Level of OGTT (blood glucose) (db/db mice [3]; Ex 2 G3 db/db, Met oral 0.3 mg/g bw/day, dosing 6 weeks, Week 18, 30 min): 885 ± 73 mg/dL
Level of OGTT (blood glucose) (db/db mice [3]; Ex 2 G3 db/db, Met oral 0.3 mg/g bw/day, dosing 6 weeks, Week 18, 60 min): 769 ± 55 mg/dL
Level of OGTT (blood glucose) (db/db mice [3]; Ex 2 G3 db/db, Met oral 0.3 mg/g bw/day, dosing 6 weeks, Week 18, 120 min): 589 ± 67^bc
OGTT AUC (db/db mice [3]; Ex 2 G3 db/db, Met oral 0.3 mg/g bw/day, dosing 6 weeks, week 6): 1288 ± 93^c
OGTT AUC (db/db mice [3]; Ex 2 G3 db/db, Met oral 0.3 mg/g bw/day, dosing 6 weeks, week 12): 1391 ± 94^cd
OGTT AUC (db/db mice [3]; Ex 2 G3 db/db, Met oral 0.3 mg/g bw/day, dosing 6 weeks, week 16): 1143 ± 55^c
OGTT AUC (db/db mice [3]; Ex 2 G3 db/db, Met oral 0.3 mg/g bw/day, dosing 6 weeks, week 18): 1456 ± 85^b
OGTT AUC (db/db mice [3]; Ex 3: db/db mice, daily dosing 3 weeks at doses of Table 10, Week 6 (stopped for 3 weeks)): 1603 ± 46^c
OGTT AUC (db/db mice [3]; Ex 3: db/db mice, daily dosing 3 weeks at doses of Table 10, Week 9 (stopped for 6 weeks)): 1707 ± 43^f
Diet intake [4]: 6.2 ± 1^c g/mice/day
Water intake [4]: 12.1 ± 1^d mL/mice/day
Kidney histological changes (tubular degeneration and necrosis, mineralization, hyaline cast) (db/db mice [5]): more apparent
